Reference: patent US10568876B2, “Tetrahydroisoquinoline derivatives useful as inhibitors of diacylglyceride O-acyltransferase 2” (Merck Sharp & Dohme Corp., priority 2014, dated 2020)

Biological target: hDGAT2 (Homo sapiens (Human), UniProt Q96PD7)
Experiment: DGAT2 Enzymatic Activity Assay
Type: biochemical
Conditions: hDGAT2 Sf-9 membrane prep; 25 μM diolein, 10 μM oleoyl-CoA; triolein product by LC/MS/MS; read-out: IC50 values for inhibition of DGAT2
Protocol: Sf-9 insect cells were maintained in Grace's insect cell culture medium with 10% heated-inactivated fetal bovine serum, 1% Pluronic F-68 and 0.14 μg/ml Kanamycine sulfate in Erlenmeyer flasks at 28° C. in a shaker incubator. After infection with untagged hDGAT2 baculovirus at multiplicity of infection (MOI) 0.1 for 48 hours, cells were harvested. Cell pellets were suspended in buffer containing 10 mM Tris-HCl (pH 7.5), 1 mM EDTA (pH 8.0), 250 mM sucrose and Complete Protease Inhibitor Cocktail (Roche Diagnostics Corp., Indianapolis, Ill.), and sonicated on ice. Membrane fractions were isolated by ultracentrifugation (100,000×g pellet), resuspended in the same buffer, and frozen (−80° C.) for later use. The protein concentration was determined with the BCA Protein Assay kit (Pierce Biotechnology Inc., Rockford, Ill.). Expression of protein levels was analyzed by immunoblotting with goat polyclonal DGAT2 antibody C-15 and donkey anti-goat IgG HRP (Santa Cruz Biotechnology, Inc., Santa Cruz, Calif.) followed by detection with ECL reagent (GE Healthcare, Piscataway, N.J.).
LC/MS/MS analyses were performed using Thermal Fisher's LX4-TSQ Vantage system. This system consists of an Agilent binary high-performance liquid chromatography (HPLC) pumps and a TSQ Vantage triple quadrupole MS/MS instrument. For each sample, 2 μL, samples from the top organic layer of in-plate liquid-liquid extraction were injected onto a Thermo Betabasic C4 column (2.1 mm×20 mm, 5 μm particle size). The samples were then eluted using the following conditions; mobile phase: methanol/water with 0.1% ammonium format=92/8 (v/v), flow rate: 1 mL/min, temperature: 25 C. Data was acquired in positive mode using a heated electrospray ionization (HESI) interface. The operational parameters for the TSQ Vantage MS/MS instrument were a spray voltage of 3000 V, capillary temperature of 280° C., vaporizer temperature 400° C., shealth gas 60 arbitrary unit, Aux gas 40 arbitrary units, S-lens 113 and collision gas 0.16 Pascals. […] (SRM) chromatograms of triolein (Q1: 902.9>Q3: 602.3) and internal standard (Q1: 902.9>Q3: 602.3) were collected for 40 sec. The peak area was integrated by Xcalibur Quan software. The ratio between the triolein generated in the reaction and spiked in internal standard were used to generate percentage inhibition and IC50 values. Compound percentage inhibition was calculated by the following formula: Inhibition %=1-[(compound response low control)/(high control low control)]×100%. Potent compounds were titrated and IC50 were calculated by 4 parameter sigmoidal curve fitting formula.
DGAT2 activity was determined by measuring the amount of enzymatic product triolein (1,2,3-Tri(cis-9-octadecenoyl)glycerol) using the membrane prep mentioned above. The assay was carried out in deep well 384 plates in a final volume of 40 μL at room temperature. The assay mixture contained the following: assay buffer (100 mM Tris.Cl, pH 7.0, 20 mM MgCl2, 5% ethanol), 25 μM of diolein, 10 μM of oleoyl-CoA and 10 ng/μL of DGAT2 membrane.

Chain of hDGAT2 (Q96PD7 whole entry): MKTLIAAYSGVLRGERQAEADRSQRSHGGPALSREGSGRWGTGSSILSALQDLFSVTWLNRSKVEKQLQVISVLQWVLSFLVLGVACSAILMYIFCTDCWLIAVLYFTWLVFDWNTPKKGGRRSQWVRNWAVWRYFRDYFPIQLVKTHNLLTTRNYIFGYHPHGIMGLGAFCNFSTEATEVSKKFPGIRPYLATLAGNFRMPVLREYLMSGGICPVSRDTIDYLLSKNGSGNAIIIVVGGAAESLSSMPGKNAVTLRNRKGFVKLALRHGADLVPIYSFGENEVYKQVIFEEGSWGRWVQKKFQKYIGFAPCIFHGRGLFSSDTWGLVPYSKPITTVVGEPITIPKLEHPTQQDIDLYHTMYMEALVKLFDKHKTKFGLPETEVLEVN

Row | Compound | IC50 [nM]
1 | Cc1noc([C@@H]2CC2C(=O)NCc2ccc(-c3cccc(OC(F)(F)F)c3)c3c2CN(CC(=O)N2[C@H](C)COC[C@H]2C)CC3)n1 (stereo partly drawn) [Example 108, (trans)-N-((2-(2-((3R,5R)-3,5-dimethylmorpholino)-2-oxoethyl)-5-(3-(trifluoromethoxy)phenyl)-1,2,3,4-tetrahydroisoquinolin-8-yl)methyl)-2-(3-methyl-1,2,4-oxadiazol-5-yl)cyclopropanecarboxamide] | 7380
2 | CC(C)(C)NC(=O)N1CCc2c(-c3ccc4c(c3)CNC4=O)ccc(CNC(=O)[C@@H]3C[C@H]3c3ccccc3)c2C1 (relative stereo) [Example 45, N-(tert-butyl)-5-(1-oxoisoindolin-5-yl)-8-(((trans)-2-phenylcyclopropanecarboxamido)methyl)-3,4-dihydroisoquinoline-2(1H)-carboxamide] | 2650
3 | Cc1noc([C@@H]2C[C@H]2C(=O)NCc2ccc(-c3cccc(C(F)(F)F)c3)c3c2CN(C(=O)Nc2ccon2)CC3)n1 (relative stereo) [Example 26, N-(isoxazol-3-yl)-8-(((trans)-2-(3-methyl-1,2,4-oxadiazol-5-yl)cyclopropanecarboxamido)methyl)-5-(3-(trifluoromethyl)phenyl)-3,4-dihydroisoquinoline-2(1H)-carboxamide] | 126
4 | Cc1noc([C@H]2C[C@@H]2C(=O)NCc2ccc(-c3cccc(C(F)(F)F)c3)c3c2CN(C(=O)C(C)(C)O)CC3)n1 (stereo in doubt) [Example 116, (trans)-N-((2-(2-hydroxy-2-methylpropanoyl)-5-(3-(trifluoromethyl)phenyl)-1,2,3,4-tetrahydroisoquinolin-8-yl)methyl)-2-(3-methyl-1,2,4-oxadiazol-5-yl)cyclopropanecarboxamide] | 1580
5 | Cn1nccc1-c1ccc(CNC(=O)[C@@H]2C[C@H]2c2ccccc2)c2c1CCN(C(=O)NC(C)(C)C)C2 (relative stereo) [Example 30, N-(tert-butyl)-5-(1-methyl-1H-pyrazol-5-yl)-8-(((trans)-2-phenylcyclopropanecarboxamido)methyl)-3,4-dihydroisoquinoline-2(1H)-carboxamide] | 1170
6 | CC(C)(C)NC(=O)N1CCc2c(-c3cncc(CO)c3)ccc(CNC(=O)C3C[C@H]3c3ccccc3)c2C1 (stereo partly drawn) [Example 28, N-(tert-butyl)-5-(5-(hydroxymethyl)pyridin-3-yl)-8-(((trans)-2-phenylcyclopropanrcarboxamido)methyl)-3,4-dihydroisoquinoline-2(1H)-carboxamide] | 992
7 | COC(=O)C1CCN(C(=O)N2CCc3c(-c4cccc(OC)c4)ccc(CNC(=O)[C@@H]4C[C@H]4c4ccccc4)c3C2)CC1 [Example 63, methyl 1-(5-(3-methoxyphenyl)-8-(((trans)-2-phenylcyclopropanrcarboxamido)methyl)-1,2,3,4-tetrahydroisoquinoline-2-carbonyl)piperidine-4-carboxylate] | 3090
8 | COc1cccc(-c2ccc(CNC(=O)[C@@H]3C[C@H]3c3ccccc3)c3c2CCN(C(=O)C(CO)C(F)(F)F)C3)c1 (some centres unmarked) [Example 118] | 1310
9 | COc1cccc(-c2ccc(CNC(=O)C3CC3c3ccccc3)c3c2CCN(C(=O)CC(C)(C)C)C3)c1 (centres unmarked) [Example 114, N-((2-(3,3-dimethylbutanoyl)-5-(3-methoxyphenyl)-1,2,3,4-tetrahydroisoquinolin-8-yl)methyl)-2-phenylcyclopropanecarboxamide] | 714
10 | CC(C)(C)NC(=O)N1CCc2c(-c3ccc4ncnn4c3)ccc(CNC(=O)[C@@H]3C[C@H]3c3ccccc3)c2C1 (relative stereo) [Example 29, 5-([1,2,4]triazolo[1,5-a]pyridin-6-yl)-N-(tert-butyl)-8-(((trans)-2-phenylcyclopropanecarboxamido)methyl)-3,4-dihydroisoquinoline-2(1H)-carboxamide] | 4640
11 | COC(=O)c1cccc(-c2ccc(CNC(=O)C3CC3c3ccccc3)c3c2CCN(C(=O)c2cccnc2)C3)c1 (centres unmarked) [Example 134, methyl 3-(2-nicotinoyl-8-((2-phenylcyclopropanecarboxamido)methyl)-1,2,3,4-tetrahydroisoquinolin-5-yl)benzoate] | 3560
12 | CC(C)(C)NC(=O)N1CCc2c(-c3cnn(-c4ccccc4)c3)ccc(CNC(=O)[C@@H]3C[C@H]3c3ccccc3)c2C1 (relative stereo) [Example 35, N-(tert-butyl)-5-(1-phenyl-1H-pyrazol-4-yl)-8-(((trans)-2-phenylcyclopropanecarboxamido)methyl)-3,4-dihydroisoquinoline-2(1H)-carboxamide] | 1170
13 | COC(=O)c1cccc(-c2ccc(CNC(=O)C3CC3c3ccccc3)c3c2CCN(C(=O)c2c[nH]nc2C2CC2)C3)c1 (centres unmarked) [Example 121, methyl 3-(2-(3-cyclopropyl-1H-pyrazole-4-carbonyl)-8-((2-phenylcyclopropanecarboxamido)methyl)-1,2,3,4-tetrahydroisoquinolin-5-yl)benzoate] | 632

Stronger by IC50, values ahead:

Row | IC50 [nM] | Compound
14 | 97.6 | CC(C)(C)NC(=O)N1CCc2c(-c3cccc(-n4nccn4)c3)ccc(CNC(=O)[C@@H]3C[C@H]3c3ccccc3)c2C1 (relative stereo) [Example 48, 5-(3-(2H-1,2,3-triazol-2-yl)phenyl)-N-(tert-butyl)-8-(((trans)-2-phenylcyclopropanecarboxamido)methyl)-3,4-dihydroisoquinoline-2(1H)-carboxamide]
15 | 89.8 | COc1cccc(-c2ccc(CNC(=O)[C@@H]3C[C@H]3c3ccccc3)c3c2CCN(C(=O)NC2COC2)C3)c1 (relative stereo) [Example 74, 5-(3-methoxyphenyl)-N-(oxetan-3-yl)-8-(((trans)-2-phenylcyclopropanecarboxamido)methyl)-3,4-dihydroisoquinoline-2(1H)-carboxamide]
16 | 13.6 | Cc1noc([C@@H]2C[C@H]2C(=O)NCc2ccc(-c3cccc(OC(F)(F)F)c3)c3c2CN(C(=O)NC2(C)COC2)CC3)n1 (relative stereo) [Example 67, 8-(((trans)-2-(3-methyl-1,2,4-oxadiazol-5-yl)cyclopropanecarboxamido)methyl)-N-(3-methyloxetan-3-yl)-5-(3-(trifluoromethoxy)phenyl)-3,4-dihydroisoquinoline-2(1H)-carboxamide]
17 | 13.4 | COc1cccc(-c2ccc(CNC(=O)[C@@H]3C[C@H]3c3nc(C)no3)c3c2CCN(C(=O)NC2(C)COC2)C3)c1 (relative stereo) [Example 53, 5-(3-methoxyphenyl)-8-(((trans)-2-(3-methyl-1,2,4-oxadiazol-5-yl)cyclopropanecarboxamido)methyl)-N-(3-methyloxetan-3-yl)-3,4-dihydroisoquinoline-2(1H)-carboxamide]
18 | 11.7 | CC(C)(C)NC(=O)N1CCc2c(-c3cccc(OC(F)(F)F)c3)ccc(CNC(=O)C3CC3c3cccnc3)c2C1 (centres unmarked) [Example 4, N-(tert-butyl)-8-((2-(pyridin-3-yl)cyclopropanecarboxamido)methyl)-5-(3-(trifluoromethoxy)phenyl)-3,4-dihydroisoquinoline-2(1H)-carboxamide]
19 | 9.3 | CC(C)(C)NC(=O)N1CCc2c(-c3cccc(-n4cncn4)c3)ccc(CNC(=O)[C@@H]3C[C@H]3c3ccccc3)c2C1 (relative stereo) [Example 50, 5-(3-(1H-1,2,4-triazol-1-yl)phenyl)-N-(tert-butyl)-8-(((trans)-2-phenylcyclopropanecarboxamido)methyl)-3,4-dihydroisoquinoline-2(1H)-carboxamide]
20 | 3 | COc1cccc(-c2ccc(CNC(=O)[C@@H]3C[C@H]3c3nc(C)no3)c3c2CCN(C(=O)NC(C)(C)C)C3)c1 (relative stereo) [Example 11, N-(tert-butyl)-5-(3-methoxyphenyl)-8-(((trans)-2-(3-methyl-1,2,4-oxadiazol-5-yl)cyclopropanecarboxamido)methyl)-3,4-dihydroisoquinoline-2(1H)-carboxamide]
